Here are results for four molecules from publication PMC10056986 (Pharmaceuticals, 2023).

Assay [1] has as its system Baloxavir-resistant influenza A/PR/8/34 (H1N1) (PA I38T). It is filed as cell-based, Influenza A virus. Particulars: read-out: EC50 (mean ± SD).
For assay [2], the system named is influenza A virus with PA I38T substitution. To be noted: cited from earlier work.
Assay [3] deals with Oseltamivir-resistant influenza virus strain A/Weiss/43 (H1N1)-4. Put plainly: microbe, parasite or virus in culture. To be noted: unidentified influenza virus, H1N1, MDCK, read-out: EC50 (mean ± SD). Format: cell-based.
In assay [4] the test system is Oseltamivir-resistant influenza virus strain A/Weiss/43 (H1N1)-5. Kind of assay: microbe, parasite or virus in culture. Particulars: unidentified influenza virus, H1N1, MDCK, read-out: EC50 (mean ± SD). Format: cell-based.

Some results are limits rather than exact numbers.

Turning to `O=C1c2c(O)c(=O)ccn2N([C@@H]2c3ccccc3SCc3c2ccc(F)c3F)[C@@H]2COCCN12` [Baloxavir], in assay [1], the EC50 (in general, the concentration giving half of the maximal effect) was 89.4 ± 11.9 nM. Besides, the “EC50 change due to PA I38T substitution” value in assay [2] was 30-50 fold.

Regarding `O=C(O)[C@H]1C2CCC(CC2)[C@@H]1Nc1nc(-c2n[nH]c3ncc(F)cc23)nc(C2CC2)c1F` [ZSP1273], the results for the EC50 in assay [3], in assay [4] and in assay [1] were 0.014 ± 0.006 nM, 0.017 ± 0.004 nM and 0.028 ± 0.013 nM, respectively.

For `O=C(O)[C@H]1C2CCC(CC2)[C@@H]1Nc1nc(-c2c[nH]c3ncc(F)cc23)ncc1F` [VX-787, reference compound], the EC50 in assay [3] was 0.234 ± 0.094 nM; in assay [4], 0.216 ± 0.053 nM; in assay [1], 0.434 ± 0.052 nM.

Consider `CCOC(=O)C1=C[C@@H](OC(CC)CC)[C@H](NC(C)=O)[C@@H](N)C1` [Oseltamivir], for which the EC50 in assay [3] and in assay [4] was more than 100000 nM throughout.
